Results taken from PMC12662201, “How ATP and dATP reposition class III ribonucleotide reductase cone domains to regulate enzyme activity” (Science Advances, 2025).

Key:
ΔConeOnly-StNrdD = biological target: T1, ΔConeOnly-StNrdD (Streptococcus thermophilus, UniProt A0A3G6JS83); assay: LC-MS/MS of dGTP product after glycyl radical activation; format: biochemical; conditions: 1 mM GTP, 1 mM TTP, no activity effector; 0.15 µM glycyl radical; 37 °C, 120 s; anaerobic
T1 construct: gene DF198_09700; cone domain removed (residues 1 to 115 deleted), connector kept; N-terminal His6 with thrombin site (pET15b); expressed in E. coli T7 Express
T1 sequence (A0A3G6JS83 116-734): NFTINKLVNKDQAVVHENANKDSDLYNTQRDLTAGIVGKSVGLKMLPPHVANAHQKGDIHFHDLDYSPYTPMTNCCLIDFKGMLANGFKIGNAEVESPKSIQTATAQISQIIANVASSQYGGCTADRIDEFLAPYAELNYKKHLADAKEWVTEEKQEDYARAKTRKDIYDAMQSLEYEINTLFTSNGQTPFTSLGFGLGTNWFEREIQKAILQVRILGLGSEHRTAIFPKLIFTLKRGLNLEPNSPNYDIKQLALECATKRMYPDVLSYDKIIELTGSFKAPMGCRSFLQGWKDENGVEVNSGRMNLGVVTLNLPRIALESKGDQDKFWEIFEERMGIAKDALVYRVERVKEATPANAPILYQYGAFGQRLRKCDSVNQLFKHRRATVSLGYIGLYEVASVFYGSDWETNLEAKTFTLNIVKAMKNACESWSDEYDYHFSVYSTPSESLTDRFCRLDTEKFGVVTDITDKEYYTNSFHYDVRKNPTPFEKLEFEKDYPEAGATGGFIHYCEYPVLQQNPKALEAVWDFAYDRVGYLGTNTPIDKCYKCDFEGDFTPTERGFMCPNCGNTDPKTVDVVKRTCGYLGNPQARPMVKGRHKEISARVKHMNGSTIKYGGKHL

StNrdD (WT-StNrdD) = biological target: T2, StNrdD (WT-StNrdD) (Streptococcus thermophilus, UniProt A0A3G6JS83); assay: cryo-EM ([…] Å); format: binding; conditions: allosteric specificity effector site at dimer interface; seen with both ATP and dATP; 1 mM TTP, 1 mM GTP, pH 7.5
T2 construct: gene DF198_09700; full length, 734 residues, N-terminal His6 with thrombin site (pET15b), tag cleaved before crystallization; expressed in E. coli T7 Express; dimer; Cys400 thiyl, Gly697 glycyl radical
T2 sequence (A0A3G6JS83 1-734): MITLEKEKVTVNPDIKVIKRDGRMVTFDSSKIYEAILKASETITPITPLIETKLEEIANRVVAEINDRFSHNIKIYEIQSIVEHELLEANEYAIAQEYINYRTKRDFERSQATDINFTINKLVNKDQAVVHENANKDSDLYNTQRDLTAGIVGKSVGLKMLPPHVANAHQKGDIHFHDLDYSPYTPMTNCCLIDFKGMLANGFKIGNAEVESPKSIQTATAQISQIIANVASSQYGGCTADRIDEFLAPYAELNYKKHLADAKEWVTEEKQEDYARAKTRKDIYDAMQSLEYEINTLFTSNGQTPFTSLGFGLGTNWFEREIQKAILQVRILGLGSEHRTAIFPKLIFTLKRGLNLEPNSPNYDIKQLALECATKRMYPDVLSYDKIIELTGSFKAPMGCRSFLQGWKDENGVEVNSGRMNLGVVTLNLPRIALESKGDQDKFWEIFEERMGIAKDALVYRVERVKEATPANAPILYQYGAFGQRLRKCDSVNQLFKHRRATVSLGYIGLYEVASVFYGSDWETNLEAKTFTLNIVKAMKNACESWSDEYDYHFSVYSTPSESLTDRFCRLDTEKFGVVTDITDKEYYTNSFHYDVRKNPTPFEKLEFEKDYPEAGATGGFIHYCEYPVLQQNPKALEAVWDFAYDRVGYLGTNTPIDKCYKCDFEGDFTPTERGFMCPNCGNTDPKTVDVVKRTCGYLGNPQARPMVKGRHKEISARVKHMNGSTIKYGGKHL

Structure (SMILES) | LC-MS/MS of dGTP product after glycyl radical activation (ΔConeOnly-StNrdD) | cryo-EM (3.6 Å) (StNrdD (WT-StNrdD))
Nc1nc2c(ncn2[C@@H]2O[C@H](COP(=O)(O)OP(=O)(O)OP(=O)(O)O)[C@@H](O)[C@H]2O)c(=O)[nH]1 [GTP] | GTP turnover proceeds in the absence of allosteric inhibitor dATP, although at a lower yield | –
Cc1cn([C@H]2C[C@H](O)[C@@H](COP(=O)(O)OP(=O)(O)OP(=O)(O)O)O2)c(=O)[nH]c1=O [TTP] | – | both structures have density for the TTP specificity effector bound at the dimer interface
